Values of other authors as cited in US20090298940A1, “All Natural Antifungal And Antimicrobial Composition And Method Thereof” (priority 2008, published 2009).

Columns and labels:
[1] = when administered internally
[2] = at 20° C.

## C/C=C/C=C/C(=O)[O-].[K+] [potassium sorbate, potassium (E,E)-hexa-2,4-dienoate]
[1]
  tolerability: well tolerated
[2]
  solubility in water: 58.2%
